Test results reported in patent US20010047099A1, “4-aminopicolinates and their use as herbicides” (priority 2000, published 2001).

Tests used:
Format in all cases: in vivo
rice (Oryza sativa) = test: Postemergence herbicidal activity, selectivity to rice; settings: Table 3; crop (rice); rate 250 ppm
Description: (§1) Seeds of the desired test plant species were planted in Grace-Sierra MetroMix® 306 planting mixture, which typically has a pH of 6.0 to 6.8 and an organic matter content of about 30 percent, in plastic pots with a surface area of 64 square centimeters. When required to ensure good germination and healthy plants, a fungicide treatment and/or other chemical or physical treatment was applied. The plants were grown for 7-21 days in a greenhouse with an approximate 15 hr photoperiod which was maintained at about 23-29° C. during the day and 22-28° C. during the night. Nutrients and water were added on a regular basis and supplemental lighting was provided with overhead metal halide 1000-Watt lamps as necessary. The plants were employed for testing when they reached the first or second true leaf stage.
A weighed amount, determined by the highest rate to be tested, of each test compound was placed in a 20 mL glass vial and was dissolved in 4 mL of a 97:3 v/v (volume/volume) mixture of acetone and dimethyl sulfoxide (DMSO) to obtain concentrated stock solutions. […] The concentrated stock solutions obtained were diluted with an aqueous mixture containing acetone, water, isopropyl alcohol, DMSO, Atplus 411F crop oil concentrate, and Triton X-155 surfactant in a 48.5:39:10:1.5:1.0:0.02 v/v ratio to obtain spray solutions of known concentration. The solutions containing the highest concentration to be tested were prepared by diluting 2 mL aliquots of the stock solution with 13 mL of the mixture and lower concentrations were prepared by serial dilution of the stock solution. […]
(§2) The treated plants and control plants were placed in a greenhouse as described above and watered by sub-irrigation to prevent wash-off of the test compounds. After 2 weeks the condition of the test plants as compared with that of the untreated plants was determined visually and scored on a scale of 0 to 100 percent where 0 corresponds to no injury and 100 corresponds to complete kill.

[1] = test system: yellow nutsedge (Cyperus esculentus); test: Postemergence herbicidal activity; settings: Table 3; weeds in rice; rate 250 ppm
Outline: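 Greenhouse plants at first or second true leaf stage sprayed to coverage with compound in acetone/water/isopropanol/DMSO/crop oil/surfactant mixture; 1 ppm ≈ 1 g/Ha. Plants sub-irrigated afterward. Injury scored visually after 2 weeks versus untreated plants, 0 (none) to 100% (complete kill).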

[2] = test system: wheat (Triticum aestivum); test: Postemergence herbicidal activity, selectivity to wheat; settings: Table 5; crop (wheat); rate 250 ppm
Description: as §1
A weighed amount, determined by the highest rate to be tested, of each test compound was placed in a 20 mL glass vial and was dissolved in 4 mL of a 97:3 v/v (volume/volume) mixture of acetone and dimethyl sulfoxide (DMSO) to obtain concentrated stock solutions. […] The concentrated stock solutions obtained were diluted with an aqueous mixture containing acetone, water, isopropyl alcohol, DMSO, Atplus 411F crop oil concentrate, and Triton X-155 surfactant in a 48.5:39:10:1.5:1.0:0.02 v/v ratio to obtain spray solutions of known concentration. The solutions containing the highest concentration to be tested were prepared by diluting 2 mL aliquots of the stock solution with 13 mL of the mixture and lower concentrations were prepared by serial dilution of the stock solution. Approximately 1.5 mL aliquots of each solution of known concentration were sprayed evenly onto each of the test plant pots using a DeVilbiss atomizer driven by compressed air pressure of 2 to 4 psi ([…]) to obtain thorough coverage of each plant. Control plants were sprayed in the same manner with the aqueous mixture. In this test an application rate of 1 ppm results in the application of approximately 1 g/Ha.
as §2

[3] = test system: White Clover (Trifolium repens); test: Range & Pasture Crop Testing (postemergence track sprayer); settings: Table 10
Outline: (§3)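 Postemergence track-sprayer application at 187 L/ha, compounds formulated in 97:3 acetone:DMSO with 0.25% X-77, five rates (X serially diluted to 1/16×). Visual percent control (0–100 scale, burn down) rated 3 weeks after treatment; GR50/GR80 derived by probit analysis.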

[4] = test system: sicklepod (Cassia obtusifolia); test: as above; settings: Table 8; salts of Compound 1; dose for 80 percent control
Outline: as §3

[5] = test system: crested wheatgrass (Agropyron cristatum) (grass crop); test: as above; settings: Table 9, rate 70 g/Ha, 3 weeks after treatment
Description: (§4) Rates are calculated based upon 5 doses being applied. The high rate (X), followed by serial dilutions of 1/2×, 1/4×, 1/8× and 1/16×. Compound requirements are based upon the 187 L/ha carrier volume, specifications of the delivery system (Mandel track sprayer) and generating 24 mL of technical spray material to allow for the dilutions and overage in the sprayer. [formula]
(§5) All technical materials were formulated in 97:3 (acetone:DMSO) with 0.25% X-77. The total volume of solvent is maintained at less than 7%. An overhead Mandel track sprayer calibrated to deliver 187 L/ha was used for all treatment applications (postemergence). Picloram was included as a comparison treatment.
(§6) Solutions were applied with a mechanized track-sprayer at the following settings:
(§7) Spray height: 17 inches above top of plants
(§8) This provides an application volume of 187 L/ha.
(§9) Percent weed control (burn down) was evaluated 3 weeks after treatment. Visual control on a 0-100 linear scale was used, with 0 representing no control and 100 representing total control. Burn down ratings were taken for annual and perennial weed species.

[6] = test system: common ragweed (Ambrosia artemisiifolia); test: as above; settings: Table 9; rate 70 g/Ha; 3 week evaluation
Description: as §4, §5, §6, §7, §8, §9

[7] = test system: broadleaf dock (Rumex obtusifolia); test: as above; settings: Table 9; rate 70 g/Ha; 3 weeks after treatment
Description: as §4, §5, §6, §7, §8, §9

Nc1cc(Br)nc(C(=O)O)c1Cl [Compound 14, 4-Amino-6-bromo-3-chloropyridine-2-carboxylic acid]
post emergent evaluation - % control ORYZA (rice (Oryza sativa)): 10% | post emergent evaluation - % control CYPES [1]: 75% | Post-emergent Evaluation - % control TRZAS [2]: 0%

CCOC(=O)c1nc(Cl)cc(N)c1Cl [Compound 4, ethyl 4-amino-3,6-dichloropyridine-2-carboxylate]
GR20 TRFRE [3]: <17.5 g/ha

Nc1cc(Cl)nc(C(=O)O)c1Cl [Compound 1, 4-Amino-3,6-dichloropyridine-2-carboxylic acid]
post emergent evaluation - % control ORYZA (rice (Oryza sativa)): 10% | Post-emergent GR80 CASOB [4]: 11 g/Ha | post emergent evaluation - % control CYPES [1]: 75%

COC(=O)c1nc(Cl)cc(N)c1Cl [Compound 3, methyl 4-amino-3,6-dichloropyridine-2-carboxylate]
Post-emergent Evaluation - % control AGRCR [5]: 30% | Post-emergent Evaluation - % control AMBEL [6]: 100% | Post-emergent Evaluation - % control RUMOB [7]: 100% | GR20 TRFRE [3]: <17.5 g/ha
